The test system of one data set is dopamine D2 receptor. The experiment in a line: Affinity for the dopamine D2 receptor, [3H]-spiperidone binding in homogenized limbic brain tissue. The note with it: ratio of IC50 D2 Spiper to IC50 D2 Quin. (LowAg/HighAg). Here is the method: High affinity for the dopamine D2 receptor was established by the standard experimental test procedure of Fields, et al., Brain Res., 136, […] (1977) and Yamamura et al., ed., Neurotransmitter Receptor Binding, Chapter 9, page 171, Raven Press, N.Y. (1978) wherein homogenized limbic brain tissue is incubated with [^3H]-spiperidone at various concentrations of test compound, filtered washed, and shaken with Hydrofluor scintillation cocktail (National Diagnostics) and counted in a Packard 460 CD scintillation counter.

Data set [1] addresses T1, dopamine autoreceptor (D2 Quin.) (Rattus norvegicus, UniProt P61169).
T1 construct: from tissue; host or cells: rat striatal brain tissue homogenate
Kind of data set: Affinity for the dopamine autoreceptor, [3H]-quinpirole binding in homogenized rat striatal brain tissue. On the procedure: Affinity for the dopamine autoreceptor was established by a modification of the standard experimental test procedure of Seemen and Schaus, European Journal of Pharmacology 203: 105-109, 1991, wherein homogenized rat striatal brain tissue is incubated with [^3H]-quinpirole (Quin.) at various concentrations of test compound, filtered, washed and counted in a Betaplate scintillation counter.

The record followed here is patent US6541501B2, “2-(aminomethyl)-tetrahydro-9-oxa-1,3-diaza-cyclopenta[a]-naphthalenyl derivatives with antipsychotic activity” (Wyeth, priority 2001, dated 2003).

Structures can show the parent of a compound that is named as a salt.

T1 sequence (P61169 whole entry): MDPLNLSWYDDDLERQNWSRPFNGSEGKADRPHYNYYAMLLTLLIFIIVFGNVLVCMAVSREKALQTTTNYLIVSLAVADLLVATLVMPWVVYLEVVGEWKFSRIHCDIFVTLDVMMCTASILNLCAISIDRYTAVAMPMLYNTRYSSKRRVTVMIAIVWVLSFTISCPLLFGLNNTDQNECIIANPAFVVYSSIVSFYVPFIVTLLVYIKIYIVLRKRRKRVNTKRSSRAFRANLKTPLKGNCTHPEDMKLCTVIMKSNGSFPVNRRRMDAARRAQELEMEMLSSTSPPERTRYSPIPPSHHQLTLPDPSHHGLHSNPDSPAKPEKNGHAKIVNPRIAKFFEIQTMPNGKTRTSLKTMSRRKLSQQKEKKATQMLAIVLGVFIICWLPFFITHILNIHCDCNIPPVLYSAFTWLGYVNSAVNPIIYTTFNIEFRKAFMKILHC

The term melting point denotes the temperature, or range, at which the solid turns liquid. For `O=c1[nH]c2c([nH]1)=C1OC(CNCc3ccccc3)CC=C1CC=2` (stereo not drawn) (as salt: oxalate) [Example 1, 8-(Benzylamino-methyl)-3,5,7,8-tetrahydro-9-oxa-1,3-diaza-cyclopenta[a]naphthalen-2-one], the melting point amounted to 229 °C. For orientation: IC50 means the concentration at which inhibition is half-maximal. Lower therefore signals greater potency in that assay. Regarding `O=c1[nH]c2ccc3c(c2[nH]1)OC(CNCc1ccccc1)CC3` (stereo not drawn) [Example 1, 8-(Benzylamino-methyl)-3,5,7,8-tetrahydro-9-oxa-1,3-diaza-cyclopenta[a]naphthalen-2-one], the Ratio with dopamine D2 receptor was determined as 309. In addition, the IC50 in data set [1] was 0.29 nM.
